In patent US7662844B2, “Naphthylene derivatives as cytochrome P450 inhibitors” (OSI Pharmaceuticals, Inc., priority 2004, dated 2010):

SMILES: CN1CCCC1C(c1ccc2cc(OCc3ccccc3)ccc2c1)n1ccnc1 (single isomer, unassigned) [Example 3-30a, 1-[(6-Benzyloxy-naphthalen-2-yl)-(1-methyl-pyrrolidin-2-yl)-methyl]-1H-imidazole]
- melting point: 124 to 126 °C

SMILES: CN1CCCC1C(c1ccc2cc(OCc3ccccc3)ccc2c1)n1ccnc1 (single isomer, unassigned) [Example 3-30b, 1-[(6-Benzyloxy-naphthalen-2-yl)-(1-methyl-pyrrolidin-2-yl)-methyl]-1H-imidazole]
- melting point: 110 to 112 °C
